2 compounds from patent publication US6703205B2, “Apparatus and methods for correcting for variable velocity in microfluidic systems” (Caliper Technologies Corp., priority 1997, dated 2004) can be followed below.

The target of one assay is HCV protease (Hepatitis C virus genotype 1a, UniProt P27958). In words: On-chip continuous flow HCV protease assay with FRET depsipeptide substrate. It counts as biochemical. Particulars: 25 mM TRIS/HCL, pH 8.5, 0.1% Triton X-100, 10 mM DTT, 1M NDSB-195. From the text:
HCV protease was used in a similar fluorogenic assay to LAR phosphatase; however, the peptide substrate incorporates a fluorescence resonance energy transfer (FRET) label (FIG. 18). […] The product fluorescence is proportional to the amount of cleaved substrate. The height of the product signal is proportional to the rate of enzyme turnover for that substrate concentration. The rate of fluorescence generation can be assessed as the fluorescence signal per mixing time of substrate and enzyme in the reaction channel. That mixing time is determined by the mean residence time of the fluorescent product in the reaction channel as it is electrokinetically pumped from the source of the mixing to the detector. Km was determined from the Michaelis Menton equation.
Due to the chemistry of this FRET quenching reaction, several considerations for accurate measurement of Km on the Labchip™ exist. […]
The chip was operational in that fluid was flowing for more than 12 hours of continuous electrokinetic pumping; however, the inhibition response was reproducible for seven hours. The total reagent volume consumed in the experiment can be calculated from the cross sectional area of the capillary and the total current. […] The average percent inhibition response was calculated for the first three inhibited and uninhibited signals at the start of each hour. […]

The target of another assay is LAR (Homo sapiens, UniProt P10586). In words: Cuvette / spectrophotometer LAR phosphatase assay with dFMUP. Conditions: same running buffer. It counts as biochemical. How it is done: A least squares fit of the three straight lines: no inhibitor, 35 μM and 69 μM peptide, was performed with the constraint that they meet at a common intercept on the y axis, 1/Vmax FIG. 15. […] The kcat is 4.74 μmol/min nmol LAR. The parallel analysis performed on the spectrophotometer in the same running buffer yielded a kcat of 6 μmol/min nmol LAR. […] The same analysis performed in a cuvette experiment with 1 mg/ml BSA in the running buffer gave 167 μM peptide.
Chain of LAR (P10586 30-1907, species assumed): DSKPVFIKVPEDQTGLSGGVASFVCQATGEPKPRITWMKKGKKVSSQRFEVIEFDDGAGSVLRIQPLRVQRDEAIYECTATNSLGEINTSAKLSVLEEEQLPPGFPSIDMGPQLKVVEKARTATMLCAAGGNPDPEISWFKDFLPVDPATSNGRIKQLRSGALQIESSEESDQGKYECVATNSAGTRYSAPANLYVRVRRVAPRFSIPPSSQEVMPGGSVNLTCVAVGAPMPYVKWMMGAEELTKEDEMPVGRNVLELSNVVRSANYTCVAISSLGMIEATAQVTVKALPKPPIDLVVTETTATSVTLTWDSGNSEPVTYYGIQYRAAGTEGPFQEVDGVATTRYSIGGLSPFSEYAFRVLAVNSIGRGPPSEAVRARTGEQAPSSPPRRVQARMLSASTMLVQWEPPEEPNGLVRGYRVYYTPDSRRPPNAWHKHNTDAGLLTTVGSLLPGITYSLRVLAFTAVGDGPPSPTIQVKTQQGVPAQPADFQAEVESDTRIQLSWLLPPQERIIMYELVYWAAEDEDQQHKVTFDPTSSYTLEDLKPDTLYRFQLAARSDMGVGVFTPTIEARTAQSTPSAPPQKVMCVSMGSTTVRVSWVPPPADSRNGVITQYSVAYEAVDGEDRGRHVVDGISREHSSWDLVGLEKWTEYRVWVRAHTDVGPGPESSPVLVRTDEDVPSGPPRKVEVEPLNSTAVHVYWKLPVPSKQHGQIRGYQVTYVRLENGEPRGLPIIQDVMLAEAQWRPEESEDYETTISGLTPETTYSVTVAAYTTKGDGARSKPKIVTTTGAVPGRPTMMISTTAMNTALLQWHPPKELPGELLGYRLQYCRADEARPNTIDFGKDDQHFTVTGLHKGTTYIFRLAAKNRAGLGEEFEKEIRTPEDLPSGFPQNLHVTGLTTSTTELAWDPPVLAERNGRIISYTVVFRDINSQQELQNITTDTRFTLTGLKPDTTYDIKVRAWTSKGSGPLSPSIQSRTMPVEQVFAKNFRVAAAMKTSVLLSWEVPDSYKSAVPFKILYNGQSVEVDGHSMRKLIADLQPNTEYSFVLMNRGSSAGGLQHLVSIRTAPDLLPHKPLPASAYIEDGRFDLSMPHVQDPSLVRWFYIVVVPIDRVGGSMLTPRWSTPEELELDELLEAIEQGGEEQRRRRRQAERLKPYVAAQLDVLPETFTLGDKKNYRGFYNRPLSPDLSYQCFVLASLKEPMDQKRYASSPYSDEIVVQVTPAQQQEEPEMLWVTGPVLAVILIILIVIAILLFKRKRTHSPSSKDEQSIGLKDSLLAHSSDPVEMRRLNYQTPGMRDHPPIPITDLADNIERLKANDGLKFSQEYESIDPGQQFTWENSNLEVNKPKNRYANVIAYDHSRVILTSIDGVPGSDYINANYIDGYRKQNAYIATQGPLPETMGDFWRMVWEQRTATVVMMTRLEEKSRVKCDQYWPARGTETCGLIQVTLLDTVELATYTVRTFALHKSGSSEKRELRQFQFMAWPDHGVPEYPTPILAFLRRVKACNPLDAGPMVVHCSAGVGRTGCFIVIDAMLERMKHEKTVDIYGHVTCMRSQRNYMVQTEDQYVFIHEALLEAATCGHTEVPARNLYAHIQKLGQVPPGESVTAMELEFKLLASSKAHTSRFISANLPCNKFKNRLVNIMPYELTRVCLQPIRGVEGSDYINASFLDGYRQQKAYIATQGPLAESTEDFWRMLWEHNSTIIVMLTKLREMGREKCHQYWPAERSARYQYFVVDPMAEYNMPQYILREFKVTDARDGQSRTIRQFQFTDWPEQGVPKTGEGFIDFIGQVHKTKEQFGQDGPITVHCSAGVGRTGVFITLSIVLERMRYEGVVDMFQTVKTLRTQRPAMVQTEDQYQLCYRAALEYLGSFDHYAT
In addition to the above kinetic studies, rate as a function of substrate concentration data was collected on three separate chips in order to consider interchip reproducibility for Km analyses. The combined data were used to prepare a double reciprocal plot. […] This is in excellent agreement with cuvette experiments performed on the spectrophotometer where dFMU was detected at 360 nm in a temperature controlled cuvette at 25_C.

Molecules are shown by their SMILES.

Chain of HCV protease (P27958 1027-1208): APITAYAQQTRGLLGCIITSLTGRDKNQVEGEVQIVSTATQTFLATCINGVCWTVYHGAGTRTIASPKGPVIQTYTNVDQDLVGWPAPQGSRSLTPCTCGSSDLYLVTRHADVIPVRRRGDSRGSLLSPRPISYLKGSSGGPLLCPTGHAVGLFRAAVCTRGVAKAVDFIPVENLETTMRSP

The term Vmax denotes the top rate of the reaction or transport when substrate is in excess. Regarding `C/C=C1\NC(=O)[C@H]2CSSCC/C=C/[C@H](CC(=O)N[C@H](C(C)C)C(=O)N2)OC(=O)[C@H](C(C)C)NC1=O` [Depsipeptide], on HCV protease, the Vmax was found to be 0.086 mM/s and the kcat was found to be 0.03 s⁻¹.

As to `Cc1cc(=O)oc2c(F)c(OP(=O)(O)O)c(F)cc12` [dFMUP], at LAR, the kcat is listed as 6 μmol/min nmolLAR.
